According to patent US20060194766A1, “Combinations comprising anti-epileptic drugs for the treatment of neurological disorders” (priority 2003, published 2006):

Test system: MES-induced seizures
Assay: Maximal electroshock test (MES)-induced seizures in mice
Type: in vivo
Details: for % animals protected from seizures: pre-treatment 1 h
Experimental: Generalized tonic-clonic seizures are induced in mice by a maximal electroshock test (MES). In brief, seizures of the hind extremities of male Tif: MAGf (SPF) mice (19-25 g) are induced by passing alternating electrical current (50 Hz, 18 mA, 0.2 s) through temporal electrodes. The compounds and carbamazepine are suspended in 0.5% methyl cellulose for p.o. administration (doses for the compounds: 3.125, 6.25, 12.5 and 20.0 mg/kg p.o). The pre-treatment period for all compounds is 1 h. Ten animals per dose are used. For each experiment one group serves as a negative control (placebo). The number of animals protected from tonic hind limb extension seizure is determined in each dose and combination group.

NC(=O)N1c2ccccc2C=Cc2ccccc21 [Carbamazepine]
% animals protected from seizures (Carbamazepine 7.5 mg/kg combined with Compound 1, 3.125 mg/kg p.o.): 40% | % animals protected from seizures (Carbamazepine 7.5 mg/kg p.o. combined with placebo): 0% | % animals protected from seizures (Carbamazepine 12.5 mg/kg combined with Compound 1, 3.125 mg/kg p.o.): 80% | % animals protected from seizures (Carbamazepine 12.5 mg/kg combined with Compound 1, 6.25 mg/kg p.o.): 90% | % animals protected from seizures (Carbamazepine 20.0 mg/kg combined with Compound 1, 6.25 mg/kg p.o.): 100% | % animals protected from seizures (Carbamazepine 20.0 mg/kg p.o. combined with placebo): 80% | % of the mice protected (carbamazepine combined with placebo, doses of 7.5 to 20.0 mg/kg p.o.): up to 80%
